From patent publication US8299301B2 (priority 2007, dated 2012)
Where two headings read alike, the source gives them in different places.

What was measured:
[1] = system: Erysiphe graminis f.sp. hordei; assay: Erysiphe test (barley) / protective; assay type: in vivo; conditions: Blumeria graminis, 168 h, read-out: efficacy
Method: Erysiphe Test (Barley)/Protective
(§1) To produce a suitable preparation of active compound, 1 part by weight of active compound is mixed with the stated amounts of solvent and emulsifier, and the concentrate is diluted with water to the desired concentration.
To test for protective activity, young plants are sprayed with the active compound preparation at the stated application rate. After the spray coating has dried on, the plants are dusted with spores of Erysiphe graminis f.sp. hordei. The plants are placed in a greenhouse at a temperature of about 20° C. and a relative atmospheric humidity of about 80% to promote the development of mildew pustules.
Evaluation is carried out 7 days after the inoculation. 0% means an efficacy which corresponds to that of the control, whereas an efficacy of 100% means that no infection is observed.

[2] = system: Sphaerotheca fuliginea; assay: Sphaerotheca test (cucumber) / protective; assay type: in vivo; conditions: Podosphaera fuliginea, 168 h, read-out: efficacy
Method: Sphaerotheca Test (Cucumber)/Protective [table] To produce a suitable preparation of active compound, 1 part by weight of active compound is mixed with the stated amounts of solvent and emulsifier, and the concentrate is diluted with water to the desired concentration. To test for protective activity, young cucumber plants are sprayed with the active compound preparation at the stated application rate. 1 day after the treatment, the plants are inoculated with a spore suspension of Sphaerotheca fuliginea.

[3] = logP determination
[4] = system: Puccinia recondite; assay: Puccinia test (wheat) / protective; assay type: in vivo; conditions: 240 h, read-out: efficacy
Method: Puccinia Test (Wheat)/Protective
as §1
To test for protective activity, young plants are sprayed with the active compound preparation at the stated application rate. After the spray coating has dried on, the plants are sprayed with a conidia suspension of Puccinia recondite. The plants remain in an incubation cabin at 20° C. and 100% relative atmospheric humidity for 48 hours. The plants are then placed in a greenhouse at a temperature of about 20° C. and a relative atmospheric humidity of 80% to promote the development of rust pustules.
Evaluation is carried out 10 days after the inoculation. 0% means an efficacy which corresponds to that of the control, whereas an efficacy of 100% means that no infection is observed.

[5] = pH 2.3
[6] = barley, protective, active compound concentration 1000 ppm, evaluation 7 days after inoculation
[7] = cucumber, protective, active compound concentration 500 ppm, evaluation 7 days after inoculation
[8] = wheat, protective, active compound concentration 1000 ppm, evaluation 10 days after inoculation

CCN(C)C=Nc1cc(C(F)(F)F)c(Oc2ccc(Cl)c(C(C)(C)C)c2)cc1C [Compound 3, N-ethyl-N-methyl-N′-[4-(3-tert-butyl-4-chlorophenoxy)-5-trifluoromethyl-2-methylphenyl]formamidine]
pest or weed control at 1000 ppm [1, 6]: ≥ 70%
pest or weed control at 500 ppm [2, 7]: ≥ 70%
logP ([3]; logP acid, acid): 3.26
logP ([3]; logP neutral, neutral): 6.68
pest or weed control at 1000 ppm [4, 8]: ≥ 70%

CCN(C)C=Nc1cc(C(F)F)c(Oc2cccc(C(C)C)c2)cc1C [Compound 18, N-ethyl-N-methyl-N′-[4-(3-iso-propylphenoxy)-5-difluoromethyl-2-methylphenyl]formamidine]
logP ([3]; logP acid, acid): 2.5

CCN(C)C=Nc1cc(CF)c(Oc2ccc(Cl)c(C(C)(C)C)c2)cc1C [Compound 1, N-ethyl-N-methyl-N′-[4-(3-tert-butyl-4-chlorophenoxy)-5-fluoromethyl-2-methylphenyl]formamidine]
pest or weed control at 1000 ppm [1, 6]: ≥ 70%
logP ([3]; logP acid, acid): 2.93
pest or weed control at 1000 ppm [4, 8]: ≥ 70%

CCN(C)C=Nc1cc(CF)c(-c2ccc(C(C)(C)C)cc2)cc1C [Compound 2, N-ethyl-N-methyl-N′-[4-(4-tert-butylphenyl)-5-fluoromethyl-2-methylphenyl]formamidine]
pest or weed control at 1000 ppm [1, 6]: ≥ 70%
logP ([3]; logP acid, acid): 2.67
pest or weed control at 1000 ppm [4, 8]: ≥ 70%

Cc1cc(Oc2ccc(Cl)c(C(C)(C)C)c2)c(C(F)(F)F)cc1N=CN(C)C [Compound 8, N,N-dimethyl-N′-[4-(3-tert-butyl-4-chlorophenoxy)-5-trifluoromethyl-2-methylphenyl]formamidine]
pest or weed control at 1000 ppm [1, 6]: ≥ 70%
pest or weed control at 500 ppm [2, 7]: ≥ 70%
logP ([3]; logP acid, acid): 3.13
logP ([3]; logP neutral, neutral): 6.3
pest or weed control at 1000 ppm [4, 8]: ≥ 70%

CCN(C)C=Nc1cc(C(F)(F)F)c(-c2ccc(C(C)(C)C)cc2)cc1C [Compound 12]
pest or weed control at 1000 ppm [1]: ≥ 70%
pest or weed control at 500 ppm [2]: ≥ 70%
logP ([3]; logP acid, acid): 2.74
logP ([3]; logP neutral, neutral): 6.15
pest or weed control at 1000 ppm [4]: ≥ 70%

CCN(C)C=Nc1cc(C(F)F)c(Oc2ccc(Cl)c(C(C)C)c2)cc1C [Compound 17, N-ethyl-N-methyl-N′-[4-(3-isopropyl-4-chlorophenoxy)-5-difluoromethyl-2-methylphenyl]formamidine]
logP ([3]; logP acid, acid): 2.97

CCN(C)C=Nc1cc(C(F)F)c(Oc2ccc(Cl)c(Cl)c2)cc1C [Compound 10, N-ethyl-N-methyl-N′-[4-(3,4-dichlorophenoxy)-5-difluoromethyl-2-methylphenyl]formamidine]
pest or weed control at 1000 ppm [1]: ≥ 70%
pest or weed control at 500 ppm [2]: ≥ 70%
logP ([3]; logP acid, acid): 2.31
pest or weed control at 1000 ppm [4]: ≥ 70%

CCN(C)C=Nc1cc(C(F)F)c(Oc2cccc(C(C)F)c2)cc1C (centres unmarked) [Compound 16, N-ethyl-N-methyl-N′-{4-[3-(1-fluoroethyl)-phenoxy]-5-difluoromethyl-2-methylphenyl}formamidine]
pest or weed control at 500 ppm [2, 7]: ≥ 70%
logP ([3]; logP acid, acid): 2.17

Cc1cc(Oc2cccc(C(C)(C)C)c2)c(C(F)(F)F)cc1N [4-(3-tertButylphenoxy)-5-trifluoromethyl-2-methylaniline]
logP ([3]; pH 2.3, log P (pH2.3), pH 2.3): 4.67

CCCN(C)C=Nc1cc(C(F)(F)F)c(Oc2ccc(Cl)c(C(F)(F)F)c2)cc1C [Compound 6, N-propyl-N-methyl-N′-[4-(3-trifluoromethyl-4-chlorophenoxy)-5-trifluoromethyl-2-methylphenyl]formamidine]
pest or weed control at 1000 ppm [1, 6]: ≥ 70%
pest or weed control at 500 ppm [2, 7]: ≥ 70%
logP ([3]; logP acid, acid): 3.01
logP ([3]; logP neutral, neutral): 6.15
pest or weed control at 1000 ppm [4, 8]: ≥ 70%

CCN(C)C=Nc1cc(C(F)(F)F)c(Oc2ccc(Cl)c(C(F)(F)F)c2)cc1C [Compound 5, N-ethyl-N-methyl-N′-[4-(3-trifluoromethyl-4-chlorophenoxy)-5-trifluoromethyl-2-methylphenyl]formamidine]
pest or weed control at 500 ppm [2, 7]: ≥ 70%
logP ([3]; logP acid, acid): 2.81
logP ([3]; logP neutral, neutral): 5.77

CCN(C)C=Nc1cc(C(F)F)c(Oc2ccccc2)cc1C [Compound 13, N-ethyl-N-methyl-N′-[4-phenoxy-5-difluoromethyl-2-methylphenyl]formamidine]
pest or weed control at 500 ppm [2]: ≥ 70%
logP ([3]; logP acid, acid): 1.73

Cc1cc(Oc2cccc(C(C)C)c2)c(C(F)F)cc1N=CN1CCCCC1 [Compound 14, N-piperidinyl-N'-[4-(3-iso-propylphenoxy)-5-difluoromethyl-2-methylphenyl]formamidine]
logP acid ([3]; acid): 2.60

Cc1c([N+](=O)[O-])ccc(Cl)c1C(F)(F)F [4-Chloro-3-trifluoromethyl-2-methylnitrobenzene]
log P (HCOOH) ([3]; HCOOH): 3.60

CCN(C)C=Nc1cc(C(F)F)c(Oc2cccc(C(C)O)c2)cc1C (centres unmarked) [Compound 15, N-ethyl-N-methyl-N′-{4-[3-(1-hydroxyethyl)-phenoxy]-5-difluoromethyl-2-methylphenyl}formamidine]
pest or weed control at 500 ppm [2]: ≥ 70%
logP ([3]; logP acid, acid): 1.65

CCN(C)C=Nc1cc(C(F)F)c(Oc2ccc(Cl)c(C(C)(C)C)c2)cc1C [Compound 9, N-ethyl-N-methyl-N′-[4-(3-tert-butyl-4-chlorophenoxy)-5-difluoromethyl-2-methylphenyl]formamidine]
pest or weed control at 1000 ppm [1, 6]: ≥ 70%
pest or weed control at 500 ppm [2, 7]: ≥ 70%
logP ([3]; logP acid, acid): 2.82
pest or weed control at 1000 ppm [4, 8]: ≥ 70%

4-(3-tertButylphenoxy)-5-trifluoromethyl-2-methylnitrobenzene
log P (pH2.3) [5]: 5.68

CCN(C)C=Nc1cc(C(F)(F)F)c(Oc2cccc(C(C)(C)C)c2)cc1C [Compound 11, N-ethyl-N-methyl-N′-[4-(3-tert-butylphenoxy)-5-trifluoromethyl-2-methylphenyl]formamidine]
logP ([3]; logP acid, acid): 2.52
logP ([3]; logP neutral, neutral): 6.04
logP ([3]; pH 2.3, log P (pH2.3), pH 2.3): 2.52

CCN(C)C=Nc1cc(C(F)(F)F)c(Oc2cccc(C(C)C)c2)cc1C [Compound 4, N-ethyl-N-methyl-N′-[4-(3-iso-propylphenoxy)-5-trifluoromethyl-2-methylphenyl]formamidine]
pest or weed control at 1000 ppm [1]: ≥ 70%
pest or weed control at 500 ppm [2]: ≥ 70%
logP ([3]; logP acid, acid): 2.65
logP ([3]; logP neutral, neutral): 5.74
pest or weed control at 1000 ppm [4]: ≥ 70%

Cc1cc(Oc2ccc(Cl)c(C(F)(F)F)c2)c(C(F)(F)F)cc1N=CN1CCCCC1 [Compound 7, N-piperidinyl-N′-[4-(3-trifluoromethyl-4-chlorophenoxy)-5-trifluoromethyl-2-methylphenyl]formamidine]
logP acid ([3]; acid): 2.98
logP neutral ([3]; neutral): 6.19
